In US7759345B2, “Antitumoral derivatives of ET-743” (priority 2001, dated 2010):

Legend:
P-388 = assay: Inhibition of cell growth by counting cells, P-388; type: cell-based, mouse; details: Mus musculus, P388, 72 h; three days of incubation; read-out: IC50 (molar) P-388
Experimental: (§1) 1°.—Inhibition of Cell Growth by Counting Cells.
(§2) This form of the assay employs 24 well multidishes of 16 mm diameter (Bergeron, 1984; Schroeder, 1981). The tumor cell lines employed are: P-388 (ATCC CCL 46), suspension culture of a lymphoid neoplasm from a DBA/2 mouse; A-549 (ATCC CCL 185), monolayer culture of a human lung carcinoma; HT-29 (ATCC HTB-38), monolayer culture of a human colon carcinoma; MEL-28 (ATCC HTB-72), monolayer culture of a human melanoma and DU-145 (ATCC HTB-81), monolayer culture of a human prostate carcinoma.
(§3) Cells were maintained, in logarithmic phase of growth in Eagle's Minimum Essential Medium, with Earle's Balanced Salts, with non-essential amino acids, with 2.0 mM L-Glutamine, without sodium bicarbonate (EMEM/neaa), supplemented with 10% Fetal Calf Serum (FCS), 10^−2 M. sodium bicarbonate and 0.1 U/l penicillin G+0.1 g/l streptomycin sulfate. For the experiments, cells are harvested from subconfluent cultures using trypsin and resuspended in fresh medium before plating.
(§4) P-388 cells were seeded into 16 mm diameter wells at 1×10^4 cells per well in 1 ml aliquots of EMEM 5% FCS containing different concentrations of the sample to be tested. A separate set of cultures without drug was seeded as control of growth, to ensure that cells remained in exponential phase of growth. All determinations are carrying out in duplicate.
(§5) For quantifying the activity, after the incubation time, cells are trypsinized and counted in a Coulter Counter ZM. All counts (net cells per well), represent the average of duplicate wells. % G, percent of growth relative to cultures without drug. The results of these assays are used to generate dose-response curves from which more precise IC50 values are determined (sample concentration which produces 50% cell growth inhibition).
(§6) Obtained results may predict the usefulness of a certain drug as a potential cancer treatment. For this technique, compounds which show IC50 values smaller than 1 μg/ml are selected to continue with further studies. IC50's data allow to predict that not only could a drug be cystostatic, but also it could have a potential in terms of tumor reduction.

HT-29 [1] = assay: Inhibition of cell growth by counting cells, HT-29; type: cell-based, human; details: Homo sapiens, HT-29, 72 h; three days of incubation; read-out: IC50 (molar) HT-29
Method in brief: (§7)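 Growth inhibition by direct cell counting: exponentially growing cells treated 3 days with compound at 37° C; IC50 derived from dose-response of net cells per well.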

A-549 [2] = assay: Inhibition of cell growth by counting cells, A-549; type: cell-based, human; details: Homo sapiens, A549, 72 h; three days of incubation; read-out: IC50 (molar) A-549
Method in brief: as §7

MEL-28 = assay: Inhibition of cell growth by counting cells, MEL-28; type: cell-based, human; details: Homo sapiens, SK-MEL-28, 72 h; three days of incubation; read-out: IC50 (molar) MEL-28
Experimental: as §1, §2, §3
as §4, with “A-549, HT-29, MEL-28 and DU-145” for “P-388”, “duplicate. After three days of incubation at 37° C., 5% CO2 in a 98% humid atmosphere cells were stained with 0.1% crystal violet. An approximately IC50 was determined by comparing the growth in wells with drug to the growth in wells control.” for “duplicate.”
as §5, §6

DU-145 = assay: Inhibition of cell growth by counting cells, DU-145; type: cell-based, human; details: Homo sapiens, DU-145, 72 h; three days of incubation; read-out: IC50 (molar) DU-145
Experimental: as §1, §2, §3
as §4, with “A-549, HT-29, MEL-28 and DU-145” for “P-388”, “duplicate. After three days of incubation at 37° C., 5% CO2 in a 98% humid atmosphere cells were stained with 0.1% crystal violet. An approximately IC50 was determined by comparing the growth in wells with drug to the growth in wells control.” for “duplicate.”
as §5, §6

HT-29 [3] = assay: Inhibition of cells growth by colorimetric assay (SRB), HT-29; type: cell-based
Experimental: (§8) 2°.—Inhibition of Cells Growth by Colorimetric Assay.
(§9) A colorimetric type of assay, using sulforhodamine B (SRB) reaction has been adapted for a quantitative measurement of cell growth and viability [following the technique described by Philip Skehan, et al. (1990), New colorimetric cytotoxicity assay for anticancer drug screening, J. Natl. Cancer Inst., 82:1107-1112]
(§10) This form of the assay employs 96 well cell culture microplates of 9 mm diameter (Faircloth, 1988; Mosmann, 1983). Most of the cell lines are obtained from American Type Culture Collection (ATCC) derived from different human cancer types.
(§11) Cells are maintained in RPMI 1640 10% FBS, supplemented with 0.1 g/l penicillin and 0.1 g/l streptomycin sulfate and then incubated at 37° C., 5% CO2 and 98% humidity. For the experiments, cells were harvested from subconfluent cultures using trypsin and resuspended in fresh medium before plating.
(§12) Cells are seeded in 96 well microtiter plates, at 5×10^3 cells per well in aliquots of 195 μl medium, and they are allowed to attach to the plate surface by growing in drug free medium for 18 hours. Afterward, samples are added in aliquots of 5 μl in a ranging from 10 to 10^−8 μg/ml, dissolved in DMSO/EtOH/PBS (0.5:0.5:99). After 48 hours exposure, the antitumor effect are measured by the SRB methodology: cells are fixed by adding 50 μl of cold 50% (wt/vol) trichloroacetic acid (TCA) and incubating for 60 minutes at 4° C. Plates are washed with deionized water and dried. One hundred μl of SRB solution (0.4% wt/vol in 1% acetic acid) is added to each microtiter well and incubated for 10 minutes at room temperature. Unbound SRB is removed by washing with 1% acetic acid. Plates are air dried and bound stain is solubilized with Tris buffer. Optical densities are read on a automated spectrophotometric plate reader at a single wavelength of 490 nm.
(§13) The values for mean+/−SD of data from triplicate wells are calculated. Some parameters for cellular responses can be calculated: GI=growth inhibition, TGI=total growth inhibition (cytostatic effect) and LC=cell killing (cytotoxic effect).
as §6, with “GI50” for “IC50”, “10” for “1”, “GI50's” for “IC50's”

A-549 [4] = assay: Inhibition of cells growth by colorimetric assay (SRB), A-549; type: cell-based
Experimental: as §8, §9, §10, §11, §12, §13
as §6, with “GI50” for “IC50”, “10” for “1”, “GI50's” for “IC50's”

SK-MEL-28 = assay: Inhibition of cells growth by colorimetric assay (SRB), SK-MEL-28; type: cell-based; details: Homo sapiens, SK-MEL-28, 48 h, SRB assay, 48 hours exposure; read-out: MEL-28 GI50
Experimental: as §8, §9, §10, §11, §12, §13
as §6, with “GI50” for “IC50”, “10” for “1”, “GI50's” for “IC50's”

SMILES | IC50 (P-388) | IC50 (HT-29 [1]) | IC50 (A-549 [2]) | IC50 (MEL-28) | IC50 (DU-145) | GI50 (HT-29 [3]; Homo sapiens, HT-29, 48 h, SRB assay, 48 hours exposure, read-out: HT-29 GI50) | LC50 (concentration for 50% cell killing) (HT-29 [3]; Homo sapiens, HT-29, 48 h, read-out: HT-29 LC50, SRB assay, 48 hours exposure) | HT-29 TGI (HT-29 [3]; SRB assay, 48 hours exposure) | GI50 (A-549 [4]; Homo sapiens, A549, 48 h, SRB assay, 48 hours exposure, read-out: A-549 GI50) | LC50 (concentration for 50% cell killing) (A-549 [4]; Homo sapiens, A549, 48 h, read-out: A-549 LC50, SRB assay, 48 hours exposure) | A-549 TGI (A-549 [4]; SRB assay, 48 hours exposure) | GI50 (SK-MEL-28)
COc1cc2c(cc1OC(=O)OCc1ccccc1)CCN[C@]21CS[C@@H]2c3c(OC(C)=O)c(C)c4c(c3[C@H](COC1=O)N1C2[C@H]2c3c(cc(C)c(OC)c3O)C[C@@H]([C@@H]1C#N)N2C)OCO4 (some centres unmarked) [Compound 27] | 0.111 nM | 0.111 nM | 0.111 nM | 0.111 nM | 0.111 nM |  |  |  |  |  |  | 
CCCC(=O)Oc1cc2c(cc1OC)[C@@]1(CS[C@@H]3c4c(OC(C)=O)c(C)c5c(c4[C@H](COC1=O)N1C3[C@H]3c4c(cc(C)c(OC)c4O)C[C@@H]([C@@H]1O)N3C)OCO5)NCC2 (some centres unmarked) [Compound 58] | 0.12 nM | 0.12 nM | 0.12 nM | 0.12 nM | 0.12 nM |  |  |  |  |  |  | 
COc1cc2c(cc1OC(=O)OC(C)(C)C)CCN[C@]21CS[C@@H]2c3c(OC(=O)C(F)(F)F)c(C)c4c(c3[C@H](COC1=O)N1C2[C@H]2c3c(cc(C)c(OC)c3O)C[C@@H]([C@@H]1C#N)N2C)OCO4 (some centres unmarked) [Compound 107] | 1.08 nM | 1.08 nM | 1.08 nM | 1.08 nM | 1.08 nM |  |  |  |  |  |  | 
COc1cc2c(cc1OC(=O)/C=C/c1ccccc1)CCN[C@]21CS[C@@H]2c3c(OC(C)=O)c(C)c4c(c3[C@H](COC1=O)N1C2[C@@H]2N[C@@H](Cc3cc(C)c(OC)c(O)c32)[C@@H]1C#N)OCO4 (some centres unmarked) [Compound 204] | 0.113 nM | 0.113 nM | 0.113 nM | 0.113 nM | 0.113 nM |  |  |  |  |  |  | 
COc1cc2c(cc1OC(=O)/C=C/c1ccccc1)CCN[C@]21CS[C@@H]2c3c(OC(C)=O)c(C)c4c(c3[C@H](COC1=O)N1C2[C@H]2c3c(cc(C)c(OC)c3O)C[C@@H]([C@@H]1C#N)N2C(=O)OC(C)(C)C)OCO4 (some centres unmarked) [Compound 194] | 50.7 nM | 50.7 nM | 50.7 nM | 50.7 nM | 50.7 nM |  |  |  |  |  |  | 
CCCCCCCCCCCCCCCC(=O)Oc1cc2c(cc1OC)[C@@]1(CS[C@@H]3c4c(OC(C)=O)c(C)c5c(c4[C@H](COC1=O)N1C3[C@H]3c4c(cc(C)c(OC)c4OC(=O)CCCCCCCCCCCCCCC)C[C@@H]([C@@H]1O)N3C)OCO5)NCC2 (some centres unmarked) [Compound 83] | 80.8 nM | 80.8 nM | 80.8 nM | 80.8 nM | 80.8 nM |  |  |  |  |  |  | 
CCCCCCCCCCCCCCCC(=O)Oc1cc2c(cc1OC)[C@@]1(CS[C@@H]3c4c(OC(C)=O)c(C)c5c(c4[C@H](COC1=O)N1C3[C@@H]3N[C@@H](Cc4cc(C)c(OC)c(O)c43)[C@@H]1O)OCO5)NCC2 (some centres unmarked) [Compound 215] |  |  |  |  |  | 86.8 nM | 10100 nM | 1.01E-05 | 92.4 nM | 10100 nM | 1.01E-05 | 19.7 nM
COc1cc2c(cc1O)CCN[C@]21CS[C@@H]2c3c(OC(C)=O)c(C)c4c(c3[C@H](COC1=O)N1C2[C@H]2c3c(cc(C)c(OC)c3O)C[C@@H]([C@@H]1C#N)N2C(=O)OC(C)(C)C)OCO4 (some centres unmarked) [Compound 188] | 0.583 nM | 0.583 nM | 0.583 nM | 0.583 nM |  |  |  |  |  |  |  | 
COc1cc2c(cc1O)CCN[C@]21CS[C@@H]2c3c(OC(C)=O)c(C)c4c(c3[C@H](COC1=O)N1C2[C@@H]2N[C@@H](Cc3cc(C)c(OC)c(O)c32)[C@@H]1C#N)OCO4 (some centres unmarked) [Compound 186] | 0.159 nM | 0.159 nM | 0.159 nM | 0.159 nM |  |  |  |  |  |  |  | 
C=CCOC(=O)Oc1cc2c(cc1OC)[C@@]1(CS[C@@H]3c4c(OC(C)=O)c(C)c5c(c4[C@H](COC1=O)N1C3[C@H]3c4c(cc(C)c(OC)c4O)C[C@@H]([C@@H]1C#N)N3C)OCO5)NCC2 (some centres unmarked) [Compound 25] | 0.141 nM | 0.141 nM | 0.141 nM | 0.141 nM |  |  |  |  |  |  |  | 
COc1cc2c(cc1OC(C)=O)CCN[C@]21CS[C@@H]2c3c(OC(C)=O)c(C)c4c(c3[C@H](COC1=O)N1C2[C@H]2c3c(cc(C)c(OC)c3O)C[C@@H]([C@@H]1C#N)N2C)OCO4 (some centres unmarked) [Compound 2] | 0.148 nM | 0.148 nM | 0.148 nM | 0.148 nM |  |  |  |  |  |  |  | 
